Patent publication US11021446B2 (NOVARTIS AG, priority 2013, dated 2021)
pEC50: −log10 of the molar value.

Biological target: T1, human Farnesoid X Receptor (FXR) ligand binding domain (GST-FXR LBD) (Homo sapiens, UniProt Q96RI1)
T1 construct: purchased Invitrogen
T1 sequence (Q96RI1 193-472 isoform Q96RI1-2): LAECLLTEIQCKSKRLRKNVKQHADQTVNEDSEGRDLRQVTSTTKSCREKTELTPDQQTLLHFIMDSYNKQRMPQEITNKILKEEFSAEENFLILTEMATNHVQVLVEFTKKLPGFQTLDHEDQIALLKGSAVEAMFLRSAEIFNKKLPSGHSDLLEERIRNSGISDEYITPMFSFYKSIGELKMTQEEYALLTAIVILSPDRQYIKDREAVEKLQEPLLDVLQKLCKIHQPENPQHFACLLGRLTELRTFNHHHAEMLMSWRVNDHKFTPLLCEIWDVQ
Experiment: Human GST-FXR LBD co-activator interaction assay (FXR HTRF assay)
Assay type: biochemical
Conditions: GST-FXR LBD interaction with biotin-labeled SRC-1 peptide, FRET, response relative to GW4064, read-out: FXR coactivator interaction assay (HTRF)
Text: Human GST-FXR LBD Co-Activator Interaction Assay
The FXR HTRF assay is a biochemical assay measuring the interaction between FXR and a coactivator protein (SRC1). The ligand-induced interaction with a coactivator protein is a critical step in transcriptional activation by FXR. Thus, this is an assay designed to measure FXR agonist activity of the test compounds.
Recombinant human Farnesoid X Receptor (FXR) ligand binding domain (amino acids 193-472) fused to glutathione S-transferase (GST) purified protein (GST-FXR LBD) was purchased (Invitrogen). The ligand-dependent interaction between GST-FXR LBD and a peptide derived from Steroid Receptor Coactivator-1 (SRC-1) was monitored by Fluorescence Resonance Energy Transfer (FRET). […] Test compounds (in DMSO solution) and detection reagents (anti-GST-Cryptate labeled antibody and Streptavidin-XL665 conjugate; CisBio) were added in assay buffer containing 50 mM KF. Plates are incubated at room temperature in the dark for 2.5 hrs before reading on an Envision (PerkinElmer) at 665 nm and 590 nm. The HTRF assay results were calculated from the 665 nm/590 nm ratio (ratio=(A665 nm/A590 nm)×10^4) and expressed in Delta F %=(Ratiosample−Rationegative)/Rationegative×100.
A negative control (without Streptavidin-XL665) was run with each assay and represented the background fluorescence. A reference FXR agonist, (E)-3-(2-chloro-4-((3-(2,6-dichlorophenyl)-5-isopropylisoxazol-4-yl)methoxy)styryl)benzoic acid (Compound GW4064), was included in each experiment as positive control. The efficacy of each test compound was compared to that of GW4064. At each concentration, the relative activity of the test compound was expressed as Response %=(Rsample−RDMSO)/(Rpositive−RDMSO), where Rsample is the HTRF response (expressed in Delta F %) for the test compound, Rpositive is the maximal response for GW4064 at saturating concentrations, and RDMSO is the response for DMSO control. The EC50 values were calculated using GraphPad Prism (GraphPad Software) using non-linear regression curve fit (log(agonist) vs. response-variable slope (four parameters)).

pEC50	SMILES
9.22	Cn1nc(C(=O)N(CC(=O)Nc2cc(C(=O)O)ccc2F)Cc2ccccc2F)c2c1-c1cc(Cl)ccc1OC2 [Compound 64, 3-(2-(8-chloro-N-(2-fluorobenzyl)-1-methyl-1,4-dihydrochromeno[4,3-c]pyrazole-3-carboxamido)acetamido)-4-fluorobenzoic Acid]
8.49	Cn1nc(C(=O)N(CC(=O)Nc2cccc(C(=O)O)c2)Cc2ccccc2F)c2c1-c1cc(Cl)ccc1CC2 [Compound 24, 3-(2-(8-chloro-N-(2-fluorobenzyl)-1-methyl-4,5-dihydro-1H-benzo[g]indazole-3-carboxamido)acetamido)benzoic acid]
8.44	Cn1nc(C(=O)N(CC(=O)Nc2cccc(C(=O)O)c2)Cc2ccccc2F)c2c1-c1ccc(Cl)cc1OC2 [Compound 9, 3-(2-(7-chloro-N-(2-fluorobenzyl)-1-methyl-1,4-dihydrochromeno[4,3-c]pyrazole-3-carboxamido)acetamido)benzoic acid]
8.07	CC(CNC(=O)CN(Cc1ccccc1F)C(=O)c1nn(C)c2c1COc1ccc(Cl)cc1-2)C(=O)O (centres unmarked) [Compound 40, 3-(2-(8-chloro-N-(2-fluorobenzyl)-1-methyl-1,4-dihydrochromeno[4,3-c]pyrazole-3-carboxamido)acetamido)-2-methylpropanoic Acid]
9.17	Cn1nc(C(=O)N(CC(=O)Nc2cc(C(=O)O)ccc2F)Cc2ccccc2)c2c1-c1cc(Cl)ccc1OC2 [Compound 29, 3-(2-(N-benzyl-8-chloro-1-methyl-1,4-dihydrochromeno[4,3-c]pyrazole-3-carboxamido)acetamido)-4-fluorobenzoic acid]
7.74	Cn1nc(C(=O)N(CCOc2ccc(C(=O)O)cc2F)Cc2ccccc2F)c2c1-c1cc(Cl)ccc1OC2 [Compound 43, 4-(2-(8-chloro-N-(2-fluorobenzyl)-1-methyl-1,4-dihydrochromeno[4,3-c]pyrazole-3-carboxamido)ethoxy)-3-fluorobenzoic Acid]
7.82	Cn1nc(C(=O)N(CCOc2ccc(C(=O)O)cc2)Cc2ccccc2F)c2c1-c1cc(Cl)ccc1OC2 [Compound 45, 4-(2-(8-chloro-N-(2-fluorobenzyl)-1-methyl-1,4-dihydrochromeno[4,3-c]pyrazole-3-carboxamido)ethoxy)benzoic acid]
8.27	Cn1nc(C(=O)N(CC(=O)Nc2cccc(C(=O)O)c2)Cc2ccccc2F)c2c1-c1ccccc1OC2 [Compound 12, 3-(2-(N-(2-fluorobenzyl)-1-methyl-1,4-dihydrochromeno[4,3-c]pyrazole-3-carboxamido)acetamido)benzoic acid]
7.60	Cn1nc(C(=O)N(CCNc2cc(C(=O)O)ccc2F)Cc2ccccc2F)c2c1-c1cc(F)ccc1OC2 [Compound 69, 4-fluoro-3-((2-(8-fluoro-N-(2-fluorobenzyl)-1-methyl-1,4-dihydrochromeno[4,3-c]pyrazole-3-carboxamido)ethyl)amino)benzoic acid]
8.22	Cn1nc(C(=O)N(CCNc2cccc(C(=O)O)c2)Cc2ccccc2F)c2c1-c1cc(Cl)ccc1OC2 [Compound 63, 3-((2-(8-chloro-N-(2-fluorobenzyl)-1-methyl-1,4-dihydrochromeno[4,3-c]pyrazole-3-carboxamido)ethyl)amino)benzoic Acid]
8.59	Cn1nc(C(=O)N(CC(=O)Nc2cc(F)cc(C(=O)O)c2)Cc2ccccc2F)c2c1-c1cc(Cl)ccc1OC2 [Compound 38, 3-(2-(8-chloro-N-(2-fluorobenzyl)-1-methyl-1,4-dihydrochromeno[4,3-c]pyrazole-3-carboxamido)acetamido)-5-fluorobenzoic Acid]
8.22	Cn1nc(C(=O)N(Cc2ccccc2)Cc2ccc(C(=O)O)cc2)c2c1-c1cc(Cl)ccc1OC2 [Compound 75, 4-((N-benzyl-8-chloro-1-methyl-1,4-dihydrochromeno[4,3-c]pyrazole-3-carboxamido)methyl)benzoic Acid]
9.08	Cc1cc(Cl)cc2c1OCc1c(C(=O)N(CC(=O)Nc3cccc(C(=O)O)c3)Cc3ccccc3F)nn(C)c1-2 [Compound 14, 3-(2-(8-chloro-N-(2-fluorobenzyl)-1,6-dimethyl-1,4-dihydrochromeno[4,3-c]pyrazole-3-carboxamido)acetamido)benzoic acid]
7.68	Cn1nc(C(=O)N(Cc2ccc(C(=O)O)cc2)Cc2cccc(F)c2F)c2c1-c1cc(Cl)ccc1OC2 [Compound 81, 4-((8-chloro-N-(2,3-difluorobenzyl)-1-methyl-1,4-dihydrochromeno[4,3-c]pyrazole-3-carboxamido)methyl)benzoic acid]
7.09	Cn1nc(C(=O)N(CCNc2cc(C(=O)O)ccc2F)Cc2ccccc2F)c2c1-c1ccccc1OC2 [Compound 70, 4-fluoro-3-((2-(N-(2-fluorobenzyl)-1-methyl-1,4-dihydrochromeno[4,3-c]pyrazole-3-carboxamido)ethyl)amino)benzoic acid]
7.68	Cn1nc(C(=O)N(CCOc2c(F)cc(C(=O)O)cc2F)Cc2ccccc2)c2c1-c1cc(F)ccc1OC2 [Compound 54, 4-(2-(N-benzyl-8-fluoro-1-methyl-1,4-dihydrochromeno[4,3-c]pyrazole-3-carboxamido)ethoxy)-3,5-difluorobenzoic acid]
8.65	Cn1nc(C(=O)N(CC(=O)Nc2cccc(C(=O)O)c2)Cc2ccccc2F)c2c1-c1cc(Cl)cc(F)c1OC2 [Compound 15, 3-(2-(8-chloro-6-fluoro-N-(2-fluorobenzyl)-1-methyl-1,4-dihydrochromeno[4,3-c]pyrazole-3-carboxamido)acetamido)benzoic acid]
8.44	Cn1nc(C(=O)N(Cc2cccc(F)c2)Cc2ccc(C(=O)O)cc2F)c2c1-c1cc(Cl)ccc1OC2 [Compound 96, 4-((8-chloro-N-(3-fluorobenzyl)-1-methyl-1,4-dihydrochromeno[4,3-c]pyrazole-3-carboxamido)methyl)-3-fluorobenzoic acid]
7.80	Cc1cccc(CN(Cc2ccc(C(=O)O)cc2)C(=O)c2nn(C)c3c2COc2ccc(Cl)cc2-3)c1 [Compound 80, 4-((8-chloro-1-methyl-N-(3-methylbenzyl)-1,4-dihydrochromeno[4,3-c]pyrazole-3-carboxamido)methyl)benzoic acid]
8.26	Cn1nc(C(=O)N(CCNc2cc(C(=O)O)ccc2F)Cc2ccccc2F)c2c1-c1cc(Cl)ccc1OC2 [Compound 101, 3-((2-(8-chloro-N-(2-fluorobenzyl)-1-methyl-1,4-dihydrochromeno[4,3-c]pyrazole-3-carboxamido)ethyl)amino)-4-fluorobenzoic Acid]
7.77	Cn1nc(C(=O)N(CCOc2c(F)cc(C(=O)O)cc2F)Cc2ccccc2F)c2c1-c1cc(F)ccc1OC2 [Compound 53, 3,5-difluoro-4-(2-(8-fluoro-N-(2-fluorobenzyl)-1-methyl-1,4-dihydrochromeno[4,3-c]pyrazole-3-carboxamido)ethoxy)benzoic acid]
9.40	Cn1nc(C(=O)N(CC(=O)Nc2cc(C(=O)O)ccc2F)Cc2cccc(F)c2)c2c1-c1cc(F)c(F)cc1OC2 [Compound 18, 3-(2-(7,8-difluoro-N-(3-fluorobenzyl)-1-methyl-1,4-dihydrochromeno[4,3-c]pyrazole-3-carboxamido)acetamido)-4-fluorobenzoic acid]
9.22	Cc1ccc(C(=O)O)cc1NC(=O)CN(Cc1ccccc1F)C(=O)c1nn(C)c2c1COc1ccc(Cl)cc1-2 [Compound 30]
7.74	Cc1cccc(CN(Cc2ccc(C(=O)O)cc2F)C(=O)c2nn(C)c3c2COc2ccc(Cl)cc2-3)c1 [Compound 84, 4-((8-chloro-1-methyl-N-(3-methylbenzyl)-1,4-dihydrochromeno[4,3-c]pyrazole-3-carboxamido)methyl)-3-fluorobenzoic acid]
8.10	Cn1nc(C(=O)N(Cc2ccc(C(=O)O)cc2)Cc2cccc(F)c2)c2c1-c1cc(F)ccc1OC2 [Compound 77, 4-((8-fluoro-N-(3-fluorobenzyl)-1-methyl-1,4-dihydrochromeno[4,3-c]pyrazole-3-carboxamido)methyl)benzoic acid]
9.30	Cc1cccc(CN(CC(=O)Nc2cc(C(=O)O)ccc2F)C(=O)c2nn(C)c3c2COc2ccc(F)cc2-3)c1 [Compound 20, 4-fluoro-3-(2-(8-fluoro-1-methyl-N-(3-methylbenzyl)-1,4-dihydrochromeno[4,3-c]pyrazole-3-carboxamido)acetamido)benzoic acid]
